Test results taken from patent US11123304B2, “Nanoparticles having poly(ester amide) polymer cores as drug delivery vehicles” (The Brigham and Women's Hospital, Inc., priority 2017, dated 2021).

Key:
blood glucose levels [1] = assay: Bioactivity of insulin released from NPs, subcutaneous injection; type: in vivo, Sprague Dawley rats; settings: 2 U/kg subcutaneous, insulin released in PBS 2 hours at 37° C.
Protocol: To study the bioactivity of insulin after the preparation and drug release process, NPs were allowed to release insulin in PBS for 2 hours at 37° C. Then the NPs were isolated from the released insulin by ultra-centrifugation. Sprague Dawley rats (Dashuo Laboratory Animal Center) (n=4 per group) were fasted overnight, and then administered the released insulin (2 U/kg) or original free insulin (2 U/kg) and saline, by subcutaneous injection. Blood glucose levels were measured with the AlphaTRAK blood glucose monitoring system (Abbott).

blood glucose levels [2] = assay: Hypoglycemic effect of oral insulin-loaded NPs in normal rats; type: in vivo, Sprague Dawley rats; settings: subcutaneous injection
Protocol: Sprague Dawley rats (n=6 per group) were fasted overnight before experiments, but allowed free access to water. The animals were administered Tf-coated NPs and BSA-coated NPs (PEA75) in PBS (1.5 mL per 100 g of body weight), at an insulin dose of 50 U/kg, by oral gavage. Tf-coated NPs were tested with four different formulations, including PEA50 NPs, PEA75 NPs, PLGA-PEA50 NPs, and PLGA-PEA75 NPs. As controls, saline and free insulin (50 U/kg) were administered by oral gavage. One group of animals was administered with insulin solution (2 U/kg) by subcutaneous (SC) injection, which was used for the calculation of relative pharmacological availability (PA %). The blood glucose levels were measured as described above, and the pharmacological availability for different formulations was calculated relative to the SC route. […] All four tested Tf-coated NPs elicited a significant hypoglycemic response, reducing glucose during the first 1-6 hours after administration as shown in Table 3.

blood glucose levels [3] = assay: Hypoglycemic effect of oral insulin-loaded NPs in diabetic mice; type: in vivo, BALB/c mice; settings: subcutaneous injection
Protocol: For the evaluation of in vivo efficacy in diabetic animals, insulin-dependent (type 1) diabetes was induced in male BALB/c mice (Charles River Laboratories) by a single injection of streptozotocin solution ([…]) as previously described (see, e.g., 7. S. Arora, S. K. Ojha, D. Vohora, Global J. Pharmacol. 2009, 3, 81-84). Animals were considered to be diabetic if they had fasting glycemia higher than 16.0 mM one week after the injection. The diabetic mice (n=6 per group) were fasted overnight and then administered different samples by gavage, including saline, free insulin, Tf-coated NPs (PEA75), and BSA-coated NPs (PEA75) (insulin dose of 50 U/kg, 1.5 mL per 100 g of body weight). One group of animals was administered an insulin solution (5 U/kg) by subcutaneous (SC) injection. The blood glucose levels were measured as described above, and the pharmacological availability for different formulations was calculated relative to the SC route.

Substance | Hypoglycemic response of released insulin (blood glucose levels [1]) | AAC (area above the serum glucose concentration curve) (blood glucose levels [2]; 2 U/kg) [%*h] | Tmax (blood glucose levels [2]; 2 U/kg) [min] | PA (relative pharmacological availability) (blood glucose levels [2]; 2 U/kg (reference route)) [%] | AAC (area above the serum glucose concentration curve) (blood glucose levels [3]; 5 U/kg) [%*h] | Tmax (blood glucose levels [3]; 5 U/kg) [min] | PA (relative pharmacological availability) (blood glucose levels [3]; 5 U/kg (reference route)) [%]
released insulin: insulin released from the NPs in PBS for 2 hours at 37° C. and separated by ultra-centrifugation | hypoglycemic response analogous to an equivalent dose of free insulin solution | – | – | – | – | – | –
insulin [Free Insulin] | – | 92.8 | 30 | 100.0 | 227.5 | 60 | 100.0
